The record followed here is ChEMBL document CHEMBL1145416, “Design, synthesis, and biological evaluation of pyrazinones containing novel P1 needles as inhibitors of TF/VIIa” (Bioorg Med Chem Lett, 2007).

The target in one test is Trypsin (Homo sapiens, UniProt P07477+P07478+P35030). Put plainly: Inhibition of trypsin. It counts as protein assay.
For a further test, the target named is Prothrombin (Homo sapiens, UniProt P00734). Put plainly: Inhibition of factor 2a.
Another test deals with T1, Coagulation factor VII (Homo sapiens, UniProt P08709).
T1 sequence (P08709 whole entry): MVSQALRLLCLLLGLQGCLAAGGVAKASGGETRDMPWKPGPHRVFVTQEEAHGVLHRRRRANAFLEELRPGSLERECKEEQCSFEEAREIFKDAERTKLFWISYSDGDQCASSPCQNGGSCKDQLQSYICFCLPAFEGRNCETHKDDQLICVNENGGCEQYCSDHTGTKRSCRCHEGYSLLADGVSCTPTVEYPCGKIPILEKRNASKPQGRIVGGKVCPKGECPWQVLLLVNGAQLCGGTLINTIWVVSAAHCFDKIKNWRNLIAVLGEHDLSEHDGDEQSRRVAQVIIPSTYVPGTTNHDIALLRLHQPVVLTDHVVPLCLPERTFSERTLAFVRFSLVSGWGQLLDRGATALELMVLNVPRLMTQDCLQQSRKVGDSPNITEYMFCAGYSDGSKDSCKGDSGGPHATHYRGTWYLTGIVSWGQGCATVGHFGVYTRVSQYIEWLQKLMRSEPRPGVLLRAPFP
Put plainly: Inhibition of factor 7a.

The next test addresses Coagulation factor X (Homo sapiens, UniProt P00742). Put plainly: Inhibition of factor 10a.

Coagulation factor X, sequence (P00742 41-179 limits assumed): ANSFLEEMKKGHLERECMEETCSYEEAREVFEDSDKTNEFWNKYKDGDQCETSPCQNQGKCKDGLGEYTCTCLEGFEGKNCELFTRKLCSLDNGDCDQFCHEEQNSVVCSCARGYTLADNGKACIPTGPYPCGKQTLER
Coagulation factor X, sequence (P00742 235-488 limits assumed): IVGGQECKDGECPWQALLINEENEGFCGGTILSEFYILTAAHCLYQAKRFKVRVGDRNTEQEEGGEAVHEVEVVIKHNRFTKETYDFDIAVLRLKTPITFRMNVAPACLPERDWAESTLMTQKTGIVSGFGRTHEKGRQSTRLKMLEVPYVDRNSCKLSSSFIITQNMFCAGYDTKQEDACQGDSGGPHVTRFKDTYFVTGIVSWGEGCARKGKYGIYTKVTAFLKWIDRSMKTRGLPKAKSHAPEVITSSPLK

As to `Nc1cccc(-c2c(Cl)nc(NC3CCC3)c(=O)n2CC(=O)NCc2ccc3c(N)nccc3c2)c1`, the IC50 against Trypsin, against Prothrombin, at Coagulation factor VII and against Coagulation factor X was over 30 µM in each case.
In the case of `N=C(N)c1ccc(S(=O)(=O)NCCn2c(-c3cccc(N)c3)c(Cl)nc(NC3CCC3)c2=O)cc1`, the IC50 against Trypsin is 9.1 µM; on Prothrombin it was over 30 µM; against Coagulation factor VII it was 30 µM; against Coagulation factor X it was over 30 µM.
With `N=C(N)c1ccc(CNC(=O)Cn2c(-c3cccc(N)c3)c(Cl)nc(NC3CCC3)c2=O)c(C(F)(F)F)c1`, the IC50 is 0.23 µM on Trypsin, over 30 µM on Prothrombin, 0.79 µM on Coagulation factor VII and over 30 µM against Coagulation factor X.
Take `Nc1cccc(-c2c(Cl)nc(NC3CCC3)c(=O)n2CC(=O)NCc2ccc3c(N)noc3c2)c1`: the IC50 against Trypsin, on Prothrombin and at Coagulation factor X was over 30 µM in each case.
`Nc1cccc(-c2c(Cl)nc(NC3CCC3)c(=O)n2CC(=O)NCc2ccccc2)c1`: the figures for the IC50 against Prothrombin, against Coagulation factor VII and on Coagulation factor X were 10.6 µM, 0.02 µM and 0.04 µM, respectively.
As to `N=C(N)c1ccc(CNC(=O)Cn2c(-c3cccc(N)c3)c(Cl)nc(NC3CCC3)c2=O)c(F)c1`, the values for the IC50 against Trypsin, at Coagulation factor VII and against Coagulation factor X were over 30 µM, 0.04 µM and 0.05 µM, respectively.
As to `Nc1cccc(-c2c(Cl)nc(NC3CCC3)c(=O)n2CC(=O)NCCc2cnc[nH]2)c1`, the IC50 against Trypsin, at Prothrombin, against Coagulation factor VII and against Coagulation factor X was over 30 µM in each case.
`N=C(N)c1ccc(CNC(=O)Cn2c(-c3cccc(N)c3)c(Cl)nc(NC3CCC3)c2=O)cc1O`: the IC50 is 7.55 µM against Trypsin, over 100 µM at Prothrombin, 0.19 µM on Coagulation factor VII and over 100 µM at Coagulation factor X.
On to `N=C(N)c1ccc(CNC(=O)Cn2c(-c3cccc(N)c3)c(Cl)nc(NC3CCC3)c2=O)cc1F`, for which the IC50 against Prothrombin and against Coagulation factor X was over 30 µM each time.
Regarding `N/N=C(/N)c1ccc(CNC(=O)Cn2c(-c3cccc(N)c3)c(Cl)nc(NC3CCC3)c2=O)cc1`, the IC50 against Prothrombin and at Coagulation factor X was over 100 µM each time.
As for `NC1=NCCSc2cc(CNC(=O)Cn3c(-c4cccc(N)c4)c(Cl)nc(NC4CCC4)c3=O)ccc21`, the IC50 against Trypsin, against Prothrombin, against Coagulation factor VII and against Coagulation factor X was over 30 µM in each case.
On to `Nc1cccc(-c2c(Cl)nc(NC3CCC3)c(=O)n2CC(=O)NCc2ccnc(N)n2)c1`, for which the IC50 against Prothrombin, at Coagulation factor VII and on Coagulation factor X was over 30 µM each time.
As for `N=c1[nH][nH]c(=O)c2cc(CNC(=O)Cn3c(-c4cccc(N)c4)c(Cl)nc(NC4CCC4)c3=O)ccc12`, the IC50 on Prothrombin, at Coagulation factor VII and on Coagulation factor X was over 30 µM in each case.
As for `N=C(N)c1c(O)c(F)c(CNC(=O)Cn2c(-c3cccc(N)c3)c(Cl)nc(NC3CCC3)c2=O)c(F)c1F`, the IC50 on Prothrombin was over 100 µM; against Coagulation factor VII, 0.11 µM; at Coagulation factor X, over 100 µM.
For `N=C(N)c1c(F)c(F)c(CNC(=O)Cn2c(-c3cccc(N)c3)c(Cl)nc(NC3CCC3)c2=O)c(F)c1F`, the IC50 against Prothrombin is over 100 µM; against Coagulation factor VII, 5.48 µM; against Coagulation factor X, over 30 µM.
Compound `N=C(N)c1ccc(C(=O)NCCn2c(-c3cccc(N)c3)c(Cl)nc(NC3CCC3)c2=O)cc1` yielded an IC50 against Coagulation factor X of over 30 µM.
On Coagulation factor X, `Nc1cccc(-c2c(Cl)nc(NC3CCC3)c(=O)n2CC(=O)NCc2ccc3c(N)nsc3c2)c1` displayed an IC50 of over 30 µM.
With `Nc1cccc(-c2c(Cl)nc(NC3CCC3)c(=O)n2CC(=O)NCCc2cnc(N)[nH]2)c1`, the IC50 on Trypsin was 6.2 µM; on Prothrombin, over 30 µM; at Coagulation factor VII it was over 30 µM; at Coagulation factor X it was over 30 µM.
